The target in data set [1] is T1, cAMP and cAMP-inhibited cGMP 3',5'-cyclic phosphodiesterase 10A (Homo sapiens, UniProt Q9Y233). The data set is described as follows: Inhibition of human recombinant GST-tagged PDE10A using [3H]-cAMP as substrate after 30 mins by scintillation proximity assay.
Data set [2] addresses T1, cAMP and cAMP-inhibited cGMP 3',5'-cyclic phosphodiesterase 10A. The data set is described as follows: Inhibition of human recombinant GST-tagged PDE10A using [3H]-cAMP as substrate at 1 uM after 30 mins by scintillation proximity assay. A general note: Scintillation proximity formats need no separation of bound from free tracer.
Data set [3] concerns the target T2, cAMP and cAMP-inhibited cGMP 3',5'-cyclic phosphodiesterase 10A (Rattus norvegicus, UniProt Q9QYJ6).
T2 sequence (Q9QYJ6 whole entry): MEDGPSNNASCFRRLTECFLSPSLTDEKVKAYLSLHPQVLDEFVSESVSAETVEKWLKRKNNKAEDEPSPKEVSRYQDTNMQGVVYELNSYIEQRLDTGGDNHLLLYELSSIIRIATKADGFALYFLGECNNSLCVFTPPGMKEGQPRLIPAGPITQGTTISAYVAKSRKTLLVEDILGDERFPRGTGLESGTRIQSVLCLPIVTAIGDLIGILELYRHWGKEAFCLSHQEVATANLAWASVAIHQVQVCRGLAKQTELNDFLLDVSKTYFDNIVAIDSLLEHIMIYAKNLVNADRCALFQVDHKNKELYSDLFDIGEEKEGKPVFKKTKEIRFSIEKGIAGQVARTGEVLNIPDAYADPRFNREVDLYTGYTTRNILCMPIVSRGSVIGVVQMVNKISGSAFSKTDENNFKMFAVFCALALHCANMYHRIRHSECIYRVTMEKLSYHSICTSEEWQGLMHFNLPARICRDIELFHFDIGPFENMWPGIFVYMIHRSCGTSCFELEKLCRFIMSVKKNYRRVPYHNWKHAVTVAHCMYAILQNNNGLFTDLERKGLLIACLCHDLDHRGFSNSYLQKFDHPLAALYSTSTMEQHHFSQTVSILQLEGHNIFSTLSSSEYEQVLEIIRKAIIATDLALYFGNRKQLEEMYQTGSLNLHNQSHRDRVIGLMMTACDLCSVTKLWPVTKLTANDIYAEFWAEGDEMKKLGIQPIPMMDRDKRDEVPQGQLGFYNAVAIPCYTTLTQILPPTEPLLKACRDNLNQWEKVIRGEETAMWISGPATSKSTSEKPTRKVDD
Briefly: Inhibition of rat recombinant GST-tagged PDE10A using [3H]-cAMP as substrate by scintillation proximity assay.

Data set [4] in a line: Metabolic stability in Beagle dog liver microsomes incubated for 10 mins prior to NADPH addition measured after 60 mins by LC/MS/MS analysis. The note with it: read-out: Stability. The format is ADME, Canis lupus familiaris. Background: Microsomes from liver hold many membrane-bound enzymes, among them those of drug oxidation.
Data set [5] is described as follows: Metabolic stability in human liver microsomes incubated for 10 mins prior to NADPH addition measured after 60 mins by LC/MS/MS analysis. The settings on record: read-out: Stability. The format is ADME.
Data set [6] in a line: Metabolic stability in CD1 mouse liver microsomes incubated for 10 mins prior to NADPH addition measured after 60 mins by LC/MS/MS analysis. The format is ADME. The settings on record: read-out: Stability.
A short description of data set [7]: Metabolic stability in Wistar rat liver microsomes incubated for 10 mins prior to NADPH addition measured after 60 mins by LC/MS/MS analysis. In kind it is ADME. The note with it: read-out: Stability.
Data set [8] is described as follows: Metabolic stability in cynomolgus monkey liver microsomes incubated for 10 mins prior to NADPH addition measured after 60 mins by LC/MS/MS analysis. The settings on record: read-out: Stability. In kind it is ADME, Macaca fascicularis.
Data set [9] deals with cGMP-specific 3',5'-cyclic phosphodiesterase (Homo sapiens) (UniProt O76074). The data set is described as follows: Inhibition of human recombinant PDE5A using […] as substrate at 1 uM after 30 mins by scintillation proximity assay.
In data set [10] the target is 3',5'-cyclic-AMP phosphodiesterase 4D (Homo sapiens) (UniProt Q08499). Briefly: Inhibition of human recombinant PDE4D using [3H]-cAMP as substrate at 1 uM after 30 mins by two-step radiometric assay.
Data set [11] has as its target Dual 3',5'-cyclic-AMP and -GMP phosphodiesterase 11A (Homo sapiens) (UniProt Q9HCR9). Briefly: Inhibition of human recombinant PDE11A using [3H]-cAMP as substrate at 1 uM after 30 mins by two-step radiometric assay.
The target of data set [12] is cGMP-inhibited 3',5'-cyclic phosphodiesterase 3A (Homo sapiens) (UniProt Q14432). Briefly: Inhibition of human recombinant PDE3A using cAMP as substrate at 1 uM after 30 mins by HTRF method. For orientation: TR-FRET usually uses a lanthanide donor and a delayed reading to cut background.
Data set [13] concerns the target cGMP-dependent 3',5'-cyclic phosphodiesterase (Homo sapiens) (UniProt O00408). Briefly: Inhibition of human recombinant PDE2A using cAMP as substrate at 10 uM after 30 mins by HTRF method.
Data set [14] has as its target Dual 3',5'-cyclic-AMP and -GMP phosphodiesterase 11A (Homo sapiens) (UniProt Q9HCR9). The data set is described as follows: Inhibition of human recombinant PDE11A using [3H]-cAMP as substrate at 10 uM after 30 mins by two-step radiometric assay.
Data set [15] has as its target cGMP-inhibited 3',5'-cyclic phosphodiesterase 3A (Homo sapiens) (UniProt Q14432). Briefly: Inhibition of human recombinant PDE3A using cAMP as substrate at 10 uM after 30 mins by HTRF method.
Data set [16] concerns the target High affinity 3',5'-cyclic-AMP phosphodiesterase 7A (Homo sapiens) (UniProt Q13946). The data set is described as follows: Inhibition of human recombinant PDE7A using [3H]-cAMP as substrate at 10 uM after 30 mins by two-step radiometric assay.
The target in data set [17] is 3',5'-cyclic-AMP phosphodiesterase 4D (Homo sapiens) (UniProt Q08499). Briefly: Inhibition of human recombinant PDE4D using [3H]-cAMP as substrate at 10 uM after 30 mins by two-step radiometric assay.
Data set [18] deals with cGMP-specific 3',5'-cyclic phosphodiesterase (Homo sapiens) (UniProt O76074). The data set is described as follows: Inhibition of human recombinant PDE5A using […] as substrate at 10 uM after 30 mins by scintillation proximity assay.
Data set [19] addresses High affinity 3',5'-cyclic-AMP phosphodiesterase 7A (Homo sapiens) (UniProt Q13946). The data set is described as follows: Inhibition of human recombinant PDE7A using [3H]-cAMP as substrate at 1 uM after 30 mins by two-step radiometric assay.
Data set [20] deals with cGMP-dependent 3',5'-cyclic phosphodiesterase (Homo sapiens) (UniProt O00408). The data set is described as follows: Inhibition of human recombinant PDE2A using cAMP as substrate at 1 uM after 30 mins by HTRF method.
cGMP-dependent 3',5'-cyclic phosphodiesterase (Homo sapiens), sequence (O00408 whole entry): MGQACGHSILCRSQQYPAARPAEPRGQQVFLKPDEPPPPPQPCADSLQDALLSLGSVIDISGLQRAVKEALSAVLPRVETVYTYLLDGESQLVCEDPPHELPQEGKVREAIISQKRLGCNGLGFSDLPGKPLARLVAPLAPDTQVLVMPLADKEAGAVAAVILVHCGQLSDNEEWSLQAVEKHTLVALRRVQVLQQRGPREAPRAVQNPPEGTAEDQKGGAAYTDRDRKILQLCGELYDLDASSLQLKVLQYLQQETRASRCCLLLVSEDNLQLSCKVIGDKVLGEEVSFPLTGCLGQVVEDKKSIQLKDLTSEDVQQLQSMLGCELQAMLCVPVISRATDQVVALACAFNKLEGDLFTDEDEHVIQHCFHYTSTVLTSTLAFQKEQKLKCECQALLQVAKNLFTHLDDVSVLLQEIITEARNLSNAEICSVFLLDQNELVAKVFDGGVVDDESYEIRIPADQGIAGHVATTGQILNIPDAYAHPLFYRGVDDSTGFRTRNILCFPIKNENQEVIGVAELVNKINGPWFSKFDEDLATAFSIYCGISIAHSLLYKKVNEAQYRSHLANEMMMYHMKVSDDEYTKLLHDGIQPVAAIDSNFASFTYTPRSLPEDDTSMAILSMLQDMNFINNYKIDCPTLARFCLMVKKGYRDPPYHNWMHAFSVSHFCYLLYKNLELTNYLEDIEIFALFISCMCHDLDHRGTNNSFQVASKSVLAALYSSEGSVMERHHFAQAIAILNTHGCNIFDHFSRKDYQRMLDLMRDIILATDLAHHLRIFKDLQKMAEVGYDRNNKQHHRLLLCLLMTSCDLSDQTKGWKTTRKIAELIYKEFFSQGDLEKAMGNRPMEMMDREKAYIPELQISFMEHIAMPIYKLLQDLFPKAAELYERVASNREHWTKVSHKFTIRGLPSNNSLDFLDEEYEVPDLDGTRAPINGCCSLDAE

3',5'-cyclic-AMP phosphodiesterase 4D (Homo sapiens), sequence (Q08499 whole entry): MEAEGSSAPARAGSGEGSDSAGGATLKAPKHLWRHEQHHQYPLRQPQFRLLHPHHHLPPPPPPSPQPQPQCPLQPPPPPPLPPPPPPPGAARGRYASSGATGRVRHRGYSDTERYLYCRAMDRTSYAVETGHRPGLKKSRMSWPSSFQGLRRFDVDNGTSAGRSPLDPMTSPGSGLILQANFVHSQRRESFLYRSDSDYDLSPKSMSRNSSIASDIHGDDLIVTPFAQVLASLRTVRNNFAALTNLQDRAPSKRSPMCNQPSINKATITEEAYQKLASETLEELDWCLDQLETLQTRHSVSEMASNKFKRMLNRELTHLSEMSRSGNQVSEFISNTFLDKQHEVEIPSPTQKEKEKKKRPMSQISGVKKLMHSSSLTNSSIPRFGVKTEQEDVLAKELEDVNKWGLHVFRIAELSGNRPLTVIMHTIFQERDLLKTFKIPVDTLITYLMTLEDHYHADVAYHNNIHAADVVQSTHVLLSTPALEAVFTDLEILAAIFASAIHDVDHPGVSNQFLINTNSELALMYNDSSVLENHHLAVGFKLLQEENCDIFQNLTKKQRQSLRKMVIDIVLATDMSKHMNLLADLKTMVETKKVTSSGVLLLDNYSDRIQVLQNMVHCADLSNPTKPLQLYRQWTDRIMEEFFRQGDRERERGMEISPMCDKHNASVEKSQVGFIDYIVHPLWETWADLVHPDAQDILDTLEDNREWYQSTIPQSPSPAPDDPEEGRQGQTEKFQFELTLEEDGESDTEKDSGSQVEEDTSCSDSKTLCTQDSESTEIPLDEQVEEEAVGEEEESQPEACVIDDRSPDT
Dual 3',5'-cyclic-AMP and -GMP phosphodiesterase 11A (Homo sapiens), sequence (Q9HCR9 whole entry, looked up): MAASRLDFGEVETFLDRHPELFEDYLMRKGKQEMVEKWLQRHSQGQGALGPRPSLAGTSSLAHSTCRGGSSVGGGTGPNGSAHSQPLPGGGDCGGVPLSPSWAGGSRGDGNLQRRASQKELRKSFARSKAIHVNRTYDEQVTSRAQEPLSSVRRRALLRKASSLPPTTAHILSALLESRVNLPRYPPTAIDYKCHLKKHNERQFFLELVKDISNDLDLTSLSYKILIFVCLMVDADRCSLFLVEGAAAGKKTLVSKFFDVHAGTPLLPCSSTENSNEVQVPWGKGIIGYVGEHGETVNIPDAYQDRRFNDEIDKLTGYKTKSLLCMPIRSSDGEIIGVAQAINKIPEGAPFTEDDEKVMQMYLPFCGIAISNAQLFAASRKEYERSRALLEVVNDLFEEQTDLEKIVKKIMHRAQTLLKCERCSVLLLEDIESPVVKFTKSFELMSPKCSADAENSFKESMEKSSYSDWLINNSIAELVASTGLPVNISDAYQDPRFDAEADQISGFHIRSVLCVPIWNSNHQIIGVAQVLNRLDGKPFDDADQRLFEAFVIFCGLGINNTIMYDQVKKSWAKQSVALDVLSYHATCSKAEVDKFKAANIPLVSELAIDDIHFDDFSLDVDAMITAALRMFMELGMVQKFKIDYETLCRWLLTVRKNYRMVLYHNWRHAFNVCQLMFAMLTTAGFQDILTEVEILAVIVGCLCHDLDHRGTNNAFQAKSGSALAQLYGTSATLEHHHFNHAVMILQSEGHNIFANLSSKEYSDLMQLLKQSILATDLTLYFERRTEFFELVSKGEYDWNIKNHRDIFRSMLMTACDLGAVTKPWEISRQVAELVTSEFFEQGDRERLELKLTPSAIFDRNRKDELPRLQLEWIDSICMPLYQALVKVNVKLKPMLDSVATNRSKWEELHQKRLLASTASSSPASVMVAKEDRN
cGMP-inhibited 3',5'-cyclic phosphodiesterase 3A (Homo sapiens), sequence (Q14432 whole entry): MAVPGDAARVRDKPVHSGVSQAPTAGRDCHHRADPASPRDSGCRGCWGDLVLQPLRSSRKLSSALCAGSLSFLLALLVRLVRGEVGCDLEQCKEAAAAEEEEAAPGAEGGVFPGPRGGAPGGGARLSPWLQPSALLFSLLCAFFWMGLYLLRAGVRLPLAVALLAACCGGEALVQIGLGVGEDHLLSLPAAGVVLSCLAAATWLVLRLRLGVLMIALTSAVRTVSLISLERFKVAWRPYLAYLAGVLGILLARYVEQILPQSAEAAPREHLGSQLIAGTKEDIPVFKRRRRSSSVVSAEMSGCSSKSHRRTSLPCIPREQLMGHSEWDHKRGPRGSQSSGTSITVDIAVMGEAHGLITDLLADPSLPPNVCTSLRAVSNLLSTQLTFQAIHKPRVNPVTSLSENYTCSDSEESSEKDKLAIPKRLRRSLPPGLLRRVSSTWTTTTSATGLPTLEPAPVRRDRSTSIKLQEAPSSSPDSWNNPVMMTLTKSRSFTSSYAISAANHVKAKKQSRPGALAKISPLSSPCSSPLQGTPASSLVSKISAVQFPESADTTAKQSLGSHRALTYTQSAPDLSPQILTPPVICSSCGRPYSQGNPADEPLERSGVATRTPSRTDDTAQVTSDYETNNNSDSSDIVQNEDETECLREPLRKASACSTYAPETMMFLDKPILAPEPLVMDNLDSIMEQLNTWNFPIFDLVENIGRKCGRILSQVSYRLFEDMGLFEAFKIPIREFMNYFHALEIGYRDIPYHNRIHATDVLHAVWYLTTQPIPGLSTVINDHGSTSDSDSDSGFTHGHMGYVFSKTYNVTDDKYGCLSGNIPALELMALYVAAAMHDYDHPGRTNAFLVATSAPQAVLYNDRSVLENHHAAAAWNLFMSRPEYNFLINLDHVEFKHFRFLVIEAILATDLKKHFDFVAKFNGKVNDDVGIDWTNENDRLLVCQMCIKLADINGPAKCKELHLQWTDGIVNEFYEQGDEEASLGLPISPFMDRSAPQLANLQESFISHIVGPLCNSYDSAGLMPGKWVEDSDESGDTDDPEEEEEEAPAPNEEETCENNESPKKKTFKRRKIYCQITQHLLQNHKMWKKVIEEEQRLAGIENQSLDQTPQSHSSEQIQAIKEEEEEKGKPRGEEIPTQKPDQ
T1 sequence (Q9Y233 whole entry): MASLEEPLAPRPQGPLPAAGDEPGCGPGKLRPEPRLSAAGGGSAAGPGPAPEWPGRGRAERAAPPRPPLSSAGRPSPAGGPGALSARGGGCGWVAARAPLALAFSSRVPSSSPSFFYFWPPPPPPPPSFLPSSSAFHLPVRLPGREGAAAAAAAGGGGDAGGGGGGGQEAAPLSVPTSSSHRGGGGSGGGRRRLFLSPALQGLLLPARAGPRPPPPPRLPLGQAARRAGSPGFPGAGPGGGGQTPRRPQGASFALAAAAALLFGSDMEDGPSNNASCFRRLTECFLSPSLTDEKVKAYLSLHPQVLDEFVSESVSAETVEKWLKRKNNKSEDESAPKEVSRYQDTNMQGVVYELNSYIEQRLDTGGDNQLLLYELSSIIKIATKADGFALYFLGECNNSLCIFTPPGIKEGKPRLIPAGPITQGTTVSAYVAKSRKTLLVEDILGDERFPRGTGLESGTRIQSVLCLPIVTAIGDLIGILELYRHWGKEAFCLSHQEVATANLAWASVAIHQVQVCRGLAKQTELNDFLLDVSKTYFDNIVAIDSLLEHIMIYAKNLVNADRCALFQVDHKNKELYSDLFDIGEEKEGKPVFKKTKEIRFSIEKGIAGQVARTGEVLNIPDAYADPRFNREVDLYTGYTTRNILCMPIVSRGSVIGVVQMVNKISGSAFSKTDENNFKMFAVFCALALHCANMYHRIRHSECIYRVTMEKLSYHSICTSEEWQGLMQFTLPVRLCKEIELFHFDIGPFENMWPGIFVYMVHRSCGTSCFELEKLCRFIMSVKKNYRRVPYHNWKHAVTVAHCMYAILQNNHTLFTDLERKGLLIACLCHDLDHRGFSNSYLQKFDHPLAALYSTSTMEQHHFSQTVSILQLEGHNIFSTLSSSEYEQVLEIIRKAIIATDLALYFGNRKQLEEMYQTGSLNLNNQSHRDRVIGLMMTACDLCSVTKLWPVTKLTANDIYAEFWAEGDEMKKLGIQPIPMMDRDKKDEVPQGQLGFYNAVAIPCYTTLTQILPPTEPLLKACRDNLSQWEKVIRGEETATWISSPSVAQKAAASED

For orientation: IC50 means the point on the concentration scale where inhibition reaches its midpoint. As a reminder, the inhibition is the percentage by which the read-out fell short of the control. On to `Cn1cc(-c2cccc(Oc3nccnc3-c3cncnc3)c2)c2nc3ccccc3cc21`, for which the IC50 in data set [1] is 267 nM; in [3], 1450 nM. Besides, the inhibition in data set [2] was determined as 76.3%.

As to `Cn1cc(C2=CCC(Oc3nccnc3-c3cncnc3)CC2)c2ncccc21` (stereo not given), the remaining at 1 h in data set [4] was 43.3%; in data set [5], 12.2%; in data set [6], 8.5%; in data set [7], 5.9%; in data set [8] it was 0%. The concentration for half-maximal inhibition (IC50) in data set [1] is 136 nM; in data set [3], 552 nM. Besides, the inhibition in data set [2] was determined as 78%.

With `COc1ccc(-c2nccnc2Oc2ccc(-c3cn(C)c4cc5ccccc5nc34)cc2)cc1`, the figures for the IC50 in data set [1] and in [3] were 153 nM and 132 nM, respectively. Further, in data set [2], the inhibition amounted to 72.3%.

As for `COc1ccc(-c2ccnc(Oc3cccc(-c4cn(C)c5cc6ccccc6nc45)c3)n2)cc1`, the IC50 in data set [1] came out at 103 nM. Further, in [2], the inhibition was 72.4%.

As for `Cn1cc(-c2ccc(Oc3nccc(-c4cncnc4)n3)cc2)c2nc3ccccc3cc21`, the 50% inhibitory concentration (IC50) in [1] was 128 nM. Also, the inhibition in [2] turned out to be 85.3%.

Consider `Cn1cc(-c2cccc(Oc3nccc(N4CCOCC4)n3)c2)c2nc3ccccc3cc21`, for which the inhibition in [9] was found to be 16%; in [10], 5.6%; in [11], 44.6%; in data set [12], 0.3%; in data set [13], 76.2%; in data set [2], 93.1%. The inhibition in data set [14] stood at 76.3%; in data set [15], 21.5%; in data set [16], 19.5%; in data set [17] it was 1%; in [18] it was 33.3%; in data set [19], 5.8%. Moreover, the inhibition in [20] was 15.7%. Besides, the remaining at 1 h in data set [4] turned out to be 1.3%; in data set [5] it was 8.2%; in [6], 0.6%; in data set [7], 0.4%; in data set [8], 0.6%. Besides, the IC50 stood at 29.2 nM in [1] and 167 nM in [3].

On to `Cn1cc(-c2cccc(Oc3nccc(-c4cn[nH]c4)n3)c2)c2nc3ccccc3cc21`, for which the inhibition in [9] was determined as 8.2%; in data set [10] it was 7.9%; in [11], 27.3%; in [12] it was 4.5%; in data set [13] it was 40.8%; in [2], 89.3%. Also, the inhibition in data set [14] turned out to be 38.5%; in data set [15], 27.5%; in data set [16] it was 27.2%; in data set [17], 34.7%; in data set [18], 19%; in [19], 16.7%. Also, in data set [20], the inhibition turned out to be 16.1%. The remaining at 1 h stood at 52% in data set [4]; 75.4% in data set [5]; 60.4% in [6]; 17.3% in data set [7]; 38.1% in data set [8]. The 50% inhibitory concentration (IC50) is 20.9 nM in data set [1] and 122 nM in data set [3].

As for `Cn1cc(-c2ccc(Oc3nccnc3-c3ccc(F)cc3)cc2)c2nc3ccccc3cc21`, the IC50 in data set [1] is 177 nM. Further, the inhibition in [2] was determined as 76.9%.

Take `Cn1cc(-c2ccc(Oc3nccnc3-c3cncnc3)cc2)c2nc3ccccc3cc21`: the inhibition was found to be 9.4% in data set [9]; 1.3% in data set [10]; 3.3% in data set [11]; 0.3% in data set [12]; 14.2% in data set [13]; 94.8% in data set [2]. The inhibition came out at 21.8% in [14]; 9.4% in [15]; 20.2% in data set [16]; 19.5% in [17]; 17.3% in data set [18]; 6% in data set [19]. For the same molecule, the inhibition in data set [20] is 8.9%. Besides, the remaining at 1 h in data set [4] is 77%; in [5], 85.2%; in data set [6], 76.1%; in data set [7], 83.1%; in data set [8] it was 68.3%. In addition, the figures for the half-maximal inhibitory concentration (IC50) in data set [1] and in data set [3] were 19.1 nM and 31.1 nM, respectively.

With `Cn1cc(-c2cccc(Oc3nccc(-c4ccc(F)cc4)n3)c2)c2nc3ccccc3cc21`, the IC50 in data set [1] was 116 nM. Besides, in data set [2], the inhibition turned out to be 76.3%.

Regarding `Cn1cc(-c2ccc(Oc3nccnc3-c3ccncc3)cc2)c2ncc(Cl)cc21`, the inhibition was found to be 0.1% in data set [9]; 4.1% in data set [10]; 3.1% in data set [11]; 0.7% in [12]; 16.1% in [13]; 79.7% in data set [2]. Also, the inhibition in data set [14] came to 5.7%; in data set [15], 9.8%; in data set [16], 53.1%; in [17], 25.4%; in data set [18], 19.3%; in data set [19] it was 5.9%. Besides, the inhibition in data set [20] is 11.3%. For the same molecule, the remaining at 1 h in data set [4] is 55.3%; in data set [5] it was 77%; in [6], 70.5%; in [7] it was 68%; in data set [8] it was 40.7%. Also, the half-inhibitory concentration (IC50) worked out at 71 nM in [1] and 141 nM in [3].

With `Cn1cc(C2CCC(Oc3nccnc3-c3cncnc3)CC2)c2ncccc21` (stereo not given), the remaining at 1 h in data set [4] is 68.6%; in data set [5], 48.8%; in data set [6] it was 50.3%; in [7], 72.5%; in [8], 0%. For the same molecule, the half-maximal inhibitory concentration (IC50) in [1] was found to be 552 nM; in data set [3] it was 372 nM. Also, the inhibition in data set [2] came to 68.9%.

With `Cn1cc(-c2cccc(Oc3nccc(-c4cncnc4)n3)c2)c2nc3ccccc3cc21`, the inhibition turned out to be 1.5% in data set [9]; 4.2% in [10]; 24.4% in data set [11]; 1.1% in data set [12]; 38.5% in data set [13]; 95% in data set [2]. The inhibition came to 43.8% in data set [14]; 4.8% in [15]; 14% in [16]; 57% in data set [17]; 23.6% in data set [18]; 4.5% in [19]. For the same molecule, in data set [20], the inhibition was determined as 11.4%. Also, the remaining at 1 h in data set [4] amounted to 40.3%; in [5], 39.8%; in data set [6], 3.9%; in [7] it was 44.7%; in data set [8], 4.5%. For the same molecule, the figures for the concentration for half-maximal inhibition (IC50) in data set [1] and in data set [3] were 18.2 nM and 90.3 nM, respectively.

The record behind these values is ChEMBL document CHEMBL3352660, “Design, synthesis and pharmacological evaluation of novel polycyclic heteroarene ethers as PDE10A inhibitors: part II” (Bioorg Med Chem Lett, 2014).
